# Experimental data published in patent US10626115B2, “Fused pyrimidinone and triazinone derivatives containing bridged nitrogen, their process of preparation and their therapeutic uses as antifungal and/or antiparasitic agents” (UNIVERSITE DE NANTES, priority 2015, dated 2020).
# Legend:
# [1] = tested on: A. fumigatus susceptible strain ASFU76; test: Antifungal susceptibility, spectrofluorimetric microdilution, ASFU76; format: cell-based, Aspergillus fumigatus; settings: Aspergillus fumigatus, read-out: MIC values ASFU76
# Method: (§1) Eleven strains of A. fumigatus with various itraconazole susceptibility were used: • Five susceptible strains: ASFU7, ASFU35A, ASFU38A, ASFU76 and ASFU78. • Six itraconazole-resistant strains: ASFU77 (erg11 mutation), ASFU13, ASFU17, ASFU19, ASFU20, ASFU23.
# (§2) Antifungal susceptibility was evaluated with a spectrofluorimetric microdilution method. MIC was the concentration that was able to inhibit 80% of fluorescence measured in the control wells.
# [2] = tested on: A. fumigatus itraconazole-resistant strain ASFU77 (erg11 mutation); test: Antifungal susceptibility, spectrofluorimetric microdilution, ASFU77; format: cell-based, Aspergillus fumigatus; settings: for MIC: Aspergillus fumigatus, read-out: MIC values ASFU77
# Method: as §1, §2
# [3] = tested on: A. fumigatus itraconazole-resistant strain ASFU23; test: Antifungal susceptibility, spectrofluorimetric microdilution, ASFU23; format: cell-based, Aspergillus fumigatus; settings: Aspergillus fumigatus, read-out: MIC values ASFU23
# Method: as §1, §2
# [4] = tested on: A. fumigatus itraconazole-resistant strain ASFU17; test: Antifungal susceptibility, spectrofluorimetric microdilution, ASFU17; format: cell-based, Aspergillus fumigatus; settings: Aspergillus fumigatus, read-out: MIC values ASFU17
# Method: as §1, §2
# [5] = tested on: A. fumigatus susceptible strain ASFU35A; test: Antifungal susceptibility, spectrofluorimetric microdilution, ASFU35A; format: cell-based, Aspergillus fumigatus; settings: Aspergillus fumigatus, read-out: MIC values ASFU35A
# Method: as §1, §2
# [6] = tested on: A. fumigatus itraconazole-resistant strain ASFU20; test: Antifungal susceptibility, spectrofluorimetric microdilution, ASFU20; format: cell-based, Aspergillus fumigatus; settings: Aspergillus fumigatus, read-out: MIC values ASFU20
# Method: as §1, §2
# [7] = tested on: A. fumigatus susceptible strain ASFU78; test: Antifungal susceptibility, spectrofluorimetric microdilution, ASFU78; format: cell-based, Aspergillus fumigatus; settings: Aspergillus fumigatus, read-out: MIC values ASFU78
# Method: as §1, §2
# [8] = tested on: A. fumigatus susceptible strain ASFU7; test: Antifungal susceptibility, spectrofluorimetric microdilution, ASFU7; format: cell-based, Aspergillus fumigatus; settings: Aspergillus fumigatus, read-out: MIC values ASFU7
# Method: as §1, §2
# [9] = tested on: fluconazole-resistant C. albicans strain CAAL111 (efflux pump); test: microbe, parasite or virus in culture; format: cell-based; settings: Candida albicans, read-out: MIC values CAAL111
# Method: (§3) Eight strains of Candida spp. with various azoles-susceptibilities were used: • One fluconazole-susceptible C. albicans strain: CAAL93 • Two fluconazole-resistant C. albicans strains: CAAL111 (efflux pump) and CAAL117 (erg11 mutations+voriconazole-resistant) • five fluconazole-resistant Candida non albicans strains: C. krusei (CAKR7, CAKR8), C. glabrata (CAGL2), C. parapsilosis s.l. (CAPA1, CAPA2).
# (§4) Antifungal susceptibility was evaluated with a spectrofluorimetric microdilution method.
# [10] = tested on: fluconazole-resistant C. krusei (CAKR8); test: microbe, parasite or virus in culture; format: cell-based; settings: Pichia kudriavzevii, read-out: MIC values CAKR8
# Method: as §3, §4
# [11] = tested on: fluconazole-resistant C. glabrata (CAGL2); test: microbe, parasite or virus in culture; format: cell-based; settings: Nakaseomyces glabratus, read-out: MIC values CAGL2
# Method: as §3, §4
# [12] = tested on: fluconazole-resistant C. albicans strain CAAL117 (erg11 mutations+voriconazole-resistant); test: microbe, parasite or virus in culture; format: cell-based; settings: for MIC: Candida albicans, read-out: MIC values CAAL117; for fold more active than voriconazole against CAAL117: compared with voriconazole
# Method: as §3, §4
# [13] = tested on: fluconazole-resistant C. krusei (CAKR7); test: microbe, parasite or virus in culture; format: cell-based; settings: Pichia kudriavzevii, read-out: MIC values CAKR7
# Method: as §3, §4
# [14] = tested on: fluconazole-susceptible C. albicans strain: CAAL93; test: Antifungal susceptibility, spectrofluorimetric microdilution, CAAL93; format: cell-based; settings: Candida albicans, read-out: MIC values CAAL93
# Method: as §3, §4
# [15] = tested on: A. fumigatus itraconazole-resistant strain ASFU13; test: Antifungal susceptibility, spectrofluorimetric microdilution, ASFU13; format: cell-based, Aspergillus fumigatus; settings: Aspergillus fumigatus, read-out: MIC values ASFU13
# Method: as §1, §2
# [16] = tested on: A. fumigatus itraconazole-resistant strain ASFU19; test: Antifungal susceptibility, spectrofluorimetric microdilution, ASFU19; format: cell-based, Aspergillus fumigatus; settings: Aspergillus fumigatus, read-out: MIC values ASFU19
# Method: as §1, §2
# [17] = tested on: A. fumigatus susceptible strain ASFU38A; test: Antifungal susceptibility, spectrofluorimetric microdilution, ASFU38A; format: cell-based, Aspergillus fumigatus; settings: Aspergillus fumigatus, read-out: MIC values ASFU38A
# Method: as §1, §2
# [18] = tested on: promastigote stage of a Leishmania mexicana strain; test: Anti-Trypanosomatidae activity, promastigote stage, spectrofluorimetric microdilution; format: cell-based; settings: for IC50: Leishmania mexicana, promastigote stage, 50% of control growth, read-out: L. mexicana (IC50 μM)
# Method: Compounds were evaluated on the promastigote stage of a Leishmania mexicana strain using a spectrofluorimetric microdilution method. Inhibitory concentration 50 (IC50) was the concentration that inhibited 50% of the control growth.
smiles,measurement,setting,value
"C[C@@H](n1ncc2cccn2c1=O)[C@](O)(Cn1cncn1)c1ccc(F)cc1F [Compound 44, 3-[(1R,2R)-2-(2,4-Difluorophenyl)-2-hydroxy-1-methyl-3-(1,2,4-triazol-1-yl)propyl]-3H-pyrrolo[1,2-d][1,2,4]triazin-4-one]",MIC,[1],18.1 ± 10.1 µg/mL
same,MIC,[2],52.8 ± 4.54 µg/mL
same,MIC,[3],9.54 µg/mL
same,MIC,[4],> 38 µg/mL
same,MIC,[5],21.4 ± 10.1 µg/mL
same,melting point,,131 to 132 °C
same,MIC,[6],8.04 µg/mL
same,MIC,[7],19.7 ± 12.9 µg/mL
same,MIC,[8],24.3 ± 9.57 µg/mL
same,MIC,[9],0.48 ± 0.199 µg/mL
same,MIC,[10],1.15 µg/mL
same,MIC,[11],0.099 ± 0.004 µg/mL
same,MIC,[12],0.79 ± 0.092 µg/mL
same,MIC,[13],0.625 ± 0.057 µg/mL
same,MIC,[14],< 0.001 µg/mL
same,MIC,[15],4.06 µg/mL
same,MIC,[16],> 38 µg/mL
same,MIC,[17],55.1 ± 9.96 µg/mL
"C[C@@H](n1ncc2cc(Br)cn2c1=O)[C@](O)(Cn1cncn1)c1ccc(F)cc1F [Compound 45, 7-Bromo-3-[(1R,2R)-2-(2,4-difluorophenyl)-2-hydroxy-1-methyl-3-(1,2,4-triazol-1-yl)propyl]-3H-pyrrolo[1,2-d][1,2,4]triazin-4-one]",melting point,,142 to 143 °C
"C[C@@H](n1ccc2nccn2c1=O)[C@](O)(Cn1cncn1)c1ccc(F)cc1F [Compound 27, 6-[(1R,2R)-2-(2,4-Difluorophenyl)-2-hydroxy-1-methyl-3-(1H-1,2,4-triazol-1-yl)propyl]imidazo[1,2-c]pyrimidin-5-one]",MIC,[1],6.76 ± 0.1 µg/mL
same,"MIC values against ITRA-resistant isolate carrying M220T mutation (ASFU77), in words",[2],in the micromolar range
same,MIC,[2],6.47 ± 0.03 µg/mL
same,MIC,[5],6.96 ± 1.49 µg/mL
same,melting point,,156 to 157 °C
same,MIC,[7],6.03 ± 0.95 µg/mL
same,MIC,[8],7.29 ± 0.22 µg/mL
same,MIC,[14],0.014 ± 0.001 µg/mL
same,IC50,[18],> 100 µM
same,MIC,[17],23 ± 21.1 µg/mL
"C[C@@H](n1ccc2nc(-c3ccc(C(F)(F)F)cc3)cn2c1=O)[C@](O)(Cn1cncn1)c1ccc(F)cc1F [Compound 33, 6-[(1R,2R)-2-(2,4-Difluorophenyl)-2-hydroxy-1-methyl-3-(1H-1,2,4-triazol-1-yl)propyl]-2-[(4-trifluoromethyl)phenyl]imidazo[1,2-c]pyrimidin-5-one]",melting point,,196 to 197 °C
"N=C(N)c1ccc(OCCCCCOc2ccc(C(=N)N)cc2)cc1 [Pentamidine, reference compound]",IC50,[18],0.34 ± 0.03 µM
"C[C@@H](n1ccc2nc(-c3nccs3)cn2c1=O)[C@](O)(Cn1cncn1)c1ccc(F)cc1F [Compound 36, 6-[(1R,2R)-2-(2,4-Difluorophenyl)-2-hydroxy-1-methyl-3-(1H-1,2,4-triazol-1-yl)propyl]-2-(thiazol-2-yl)imidazo[1,2-c]pyrimidin-5-one]",melting point,,175 to 176 °C
"C[C@@H](n1ccc2nc(C#N)cn2c1=O)[C@](O)(Cn1cncn1)c1ccc(F)cc1F [Compound 38, 6-[(1R,2R)-2-(2,4-Difluorophenyl)-2-hydroxy-1-methyl-3-(1H-1,2,4-triazol-1-yl)propyl]-5-oxo-imidazo[1,2-c]pyrimidine-2-carbonitrile]",melting point,,132 to 133 °C
"C[C@@H](n1ncc2cc(-c3ccccc3)cn2c1=O)[C@](O)(Cn1cncn1)c1ccc(F)cc1F [Compound 47, 3-[(1R,2R)-2-(2,4-Difluorophenyl)-2-hydroxy-1-methyl-3-(1,2,4-triazol-1-yl)propyl]-7-phenyl-3H-pyrrolo[1,2-d][1,2,4]triazin-4-one]",MIC,[1],48.4 ± 7.95 µg/mL
same,MIC,[2],64.8 ± 7.46 µg/mL
same,MIC,[5],41.3 ± 8.61 µg/mL
same,melting point,,146 to 147 °C
same,MIC,[7],54.7 ± 12.1 µg/mL
same,MIC,[8],44.1 ± 7.76 µg/mL
same,MIC,[9],0.016 ± 0.001 µg/mL
same,MIC,[10],0.014 µg/mL
same,MIC,[11],0.008 ± 0.005 µg/mL
same,MIC,[12],0.014 ± 0.002 µg/mL
same,fold more active than voriconazole against CAAL117,[12],100 fold
same,MIC,[13],0.013 ± 0.001 µg/mL
same,MIC,[14],< 0.001 µg/mL
same,MIC,[17],58.4 ± 15.7 µg/mL
"C[C@@H](n1ccc2nc(-c3ccc(F)cc3)cn2c1=O)[C@](O)(Cn1cncn1)c1ccc(F)cc1F [Compound 30, 6-[(1R,2R)-2-(2,4-Difluorophenyl)-2-hydroxy-1-methyl-3-(1H-1,2,4-triazol-1-yl)propyl]-2-(4-fluorophenyl)imidazo[1,2-c]pyrimidin-5-one]",melting point,,114 to 115 °C
same,"effectiveness against the promastigote stage of L. Mexicana, in words",[18],effective
same,IC50,[18],8.1 ± 1.6 µM
"C[C@@H](n1ncc2cc(-c3ccc(C#N)cc3)cn2c1=O)[C@](O)(Cn1cncn1)c1ccc(F)cc1F [Compound 49, 4-{3-[(1R,2R)-2-(2,4-Difluorophenyl)-2-hydroxy-1-methyl-3-(1,2,4-triazol-1-yl)propyl]-4-oxo-3,4-dihydro-pyrrolo[1,2-d][1,2,4]triazin-7-yl}benzonitrile]",melting point,,201 to 202 °C
same,MIC,[10],0.101 ± 0.014 µg/mL
same,MIC,[11],0.025 ± 0.01 µg/mL
same,MIC,[12],0.016 ± 0.001 µg/mL
same,fold more active than voriconazole against CAAL117,[12],100 fold
same,MIC,[13],0.058 ± 0.009 µg/mL
same,MIC,[14],< 0.048 µg/mL
"C[C@@H](n1ccc2nc(-c3ccc(Br)cc3)cn2c1=O)[C@](O)(Cn1cncn1)c1ccc(F)cc1F [Compound 32, 6-[(1R,2R)-2-(2,4-Difluorophenyl)-2-hydroxy-1-methyl-3-(1H-1,2,4-triazol-1-yl)propyl]-2-(4-bromophenyl)imidazo[1,2-c]pyrimidin-5-one]",melting point,,161 to 162 °C
"CCOC(=O)c1cn2c(=O)n([C@H](C)[C@](O)(Cn3cncn3)c3ccc(F)cc3F)ccc2n1 [Compound 37, Ethyl-6-[(1R,2R)-2-(2,4-difluorophenyl)-2-hydroxy-1-methyl-3-(1H-1,2,4-triazol-1-yl)propyl]-5-oxo-imidazo[1,2-c]pyrimidine-2-carboxylate]",melting point,,148 to 149 °C
"Cc1cn2c(=O)n([C@H](C)[C@](O)(Cn3cncn3)c3ccc(F)cc3F)ccc2n1 [Compound 28, 6-[(1R,2R)-2-(2,4-Difluorophenyl)-2-hydroxy-1-methyl-3-(1H-1,2,4-triazol-1-yl)propyl]-2-methylimidazo[1,2-c]pyrimidin-5-one]",melting point,,103 to 104 °C
same,IC50,[18],> 100 µM
"C[C@@H](n1ccc2nc(-c3ccc(Cl)cc3)cn2c1=O)[C@](O)(Cn1cncn1)c1ccc(F)cc1F [Compound 31, 6-[(1R,2R)-2-(2,4-Difluorophenyl)-2-hydroxy-1-methyl-3-(1H-1,2,4-triazol-1-yl)propyl]-2-(4-chlorophenyl)imidazo[1,2-c]pyrimidin-5-one]",MIC,[1],5.7 ± 0.51 µg/mL
same,"MIC values against ITRA-resistant isolate carrying M220T mutation (ASFU77), in words",[2],in the micromolar range
same,MIC,[2],5.99 ± 0.33 µg/mL
same,MIC,[5],5.81 ± 0.5 µg/mL
same,melting point,,158 to 159 °C
same,MIC,[7],5.72 ± 0.39 µg/mL
same,MIC,[8],5.04 µg/mL
same,MIC,[14],< 0.001 µg/mL
same,MIC,[17],5.59 ± 0.15 µg/mL
